From US6495569B1, “Imidazolidine compounds” (Millennium Pharmaceuticals, Inc., priority 2001, dated 2002)

The molecules below were run against T1, CXCR3 (Homo sapiens, UniProt P49682) (assay: CXCR3/IP-10 radioligand binding assay (125I-IP-10 competition on CXCR3.L1/2 cell membranes)). Settings: test compound 10 μmol/L; 125I-labeled IP-10 0.05 to 0.2 nmol/L; CXCR3.L1/2 transfectant cell membranes; 60 min at room temperature.
T1 construct: expressed in transfected cells; membrane preparation
T1 sequence (P49682 1-368): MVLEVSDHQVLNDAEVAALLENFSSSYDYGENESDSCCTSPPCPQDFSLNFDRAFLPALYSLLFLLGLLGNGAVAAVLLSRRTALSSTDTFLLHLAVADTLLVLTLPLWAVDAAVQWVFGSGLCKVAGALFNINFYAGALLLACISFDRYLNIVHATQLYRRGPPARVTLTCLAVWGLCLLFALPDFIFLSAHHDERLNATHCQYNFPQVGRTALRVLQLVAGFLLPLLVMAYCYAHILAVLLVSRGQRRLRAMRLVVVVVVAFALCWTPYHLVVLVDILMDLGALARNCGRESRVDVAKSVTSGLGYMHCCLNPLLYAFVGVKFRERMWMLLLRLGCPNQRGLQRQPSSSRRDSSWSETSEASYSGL
From the text: The activity of the compounds of the present invention can be assessed using a suitable assay, such as a receptor binding assay, a chemotaxis assays, an extracellular acidification assay or a calcium flux assay (see, for example, Hesselgesser et al., J. Biol. Chem. 273(25):15687-15692 (1998) and WO 98/02151). For example, as described herein, small organic molecule antagonists of CXCR3/IP-10 binding have been identified utilizing cells engineered to express recombinant human CXCR3 (CXCR3.L1/2) and which bind ^125I-IP10 and chemotax in response to IP-10, Mig or I-TAC. Specifically, a high through-put receptor binding assay, which monitors ^125I-IP10 binding to CXCR3.L1/2 cell membranes, was used to identify small molecule antagonists which block binding of IP-10, Mig or I-TAC to CXCR3.
CXCR3.L1/2 cells were pelleted by centrifugation and stored at −80° C.. The cells were lysed by thawing and resuspending at about 1.5×10^7 cells/ml in a hypotonic buffer (5 mmol/L HEPES (pH 7.2), 2 mmol/L EDTA, 10 μg/ml each leupeptin, aprotinin, and chymostatin, and 100 μg/ml PMSF (all from Sigma, St. Louis)). Nuclei and cellular debris was removed by centrifugation ([…], at 4° C.) for 10 min. The supernatant was transferred to chilled centrifuge tubes (Nalge, Rochester, N.Y.) and the membrane fraction was recovered by centrifugation (25,000 g at 4° C.) for 45 min. The membrane pellet was resuspended in freezing buffer (10 mM HEPES (pH 7.2), 300 mmol/L Sucrose, 5 μg/ml each of leupeptin, aprotinin, and chymostatin, and 10 μg/ml PMSF). The total protein concentration was determined using a coomassie blue staining protein concentration assay kit (BioRad). The membrane preparation was aliquoted and stored at −80° C. until time of use.
CXCR3/IP-10 binding was performed in 96-well polypropylene plates (Costar) in a final volume of 0.1 ml of HBB buffer (50 mmol/L Hepes pH 7.4, 1 mmol/L CaCl2, 5 mmol/L MgCl2, 0.02% sodium azide, 0.5% BSA (bovine serum albumin)) containing 1 to 5 μg of CXCR3.L1/2 transfectant cell membrane protein and 0.05 to 0.2 nmol/L ^125I-labeled IP-10 (NEN, Boston, Mass.). Competition binding experiments were performed by including variable concentrations of unlabeled IP-10 or test compound. Nonspecific binding was determined following the addition of a 250 nmol/L unlabelled IP-10. Samples were incubated for 60 min at room temperature, and bound and free tracer (^125I-IP10) were separated by filtration through 96-well GF/B filterplates (Packard) presoaked in 0.3% polyethyleneimine. The filters were washed in HBB further supplemented with 0.5 mol/L NaCl, dried, and the amount of bound radioactivity determined by liquid scintillation counting. The competition is presented as the percent specific binding as calculated by 100×[(S−B)/(T−B)], where S is the radioactivity bound for each sample, B is background binding, and T is total bound in the absence of competitors. Duplicates were used throughout the experiments.

**Q.** `N#CC(C#N)=C1N(CCSCc2cccc(CN3CCCCC3)c2)CCN1Cc1cccc2ccccc12` [Compound 1, 1-{2-(3-Piperidinomethylbenzylthio)ethyl}-3-(1-naphthylmethyl)-2-imidazolidinylidenepropanedinitrile] was tested. Which “% inhibition at 10 μmol/L” value did it give?
**A.** The value was 108%.

**Q.** Which “% inhibition at 10 μmol/L” value does the source give for `N#CC(C#N)=C1N(CCSCc2ccc(CN3CCCCC3)cc2)CCN1Cc1cccc2ccccc12` [Compound 2, 1-{2-(4-Piperidinomethylbenzylthio)ethyl}-3-(1-naphthylmethyl)-2-imidazolidinylidenepropanedinitrile] here?
**A.** Its value is 94%.

**Q.** Which “% inhibition at 10 μmol/L” value does the source give for “1-{2-(3-Piperidinomethylbenzylthio)ethyl}-3-(1-naphthoyl)-2-imidazolidinylidenepropanedinitrile [Compound 7]” here?
**A.** The value was 93%.

**Q.** Which “% inhibition at 10 μmol/L” value does the source give for “1-{2-(3-Piperidinomethylbenzylthio)ethyl}-3-{1-(8-methylnaphthyl)methyl}-2-imidazolidinylidenepropanedinitrile [Compound 11]” here?
**A.** The value was 96%.

**Q.** With “1-{2-(3-Piperidinomethylbenzylthio)ethyl}-3-(2,3-methylenedioxybenzyl)-2-imidazolidinylidenepropanedinitrile [Compound 6]” as the molecule, how does the “% inhibition at 10 μmol/L” value read?
**A.** The value was 84%.

**Q.** Which “% inhibition at 10 μmol/L” value does the source give for `N#CC(C#N)=C1N(CCCc2ccccc2)CCN1CCSCc1cccc(CN2CCCCC2)c1` [Compound 10, 1-{2-(3-Piperidinomethylbenzylthio)ethyl}-3-(3-phenylpropyl)-2-imidazolidinylidenepropanedinitrile] here?
**A.** The value was 86%.

**Q.** For `Cc1cccc(CN2CCN(CCSCc3cccc(CN4CCCCC4)c3)C2=C(C#N)C#N)c1C` [Compound 3, 1-{2-(3-Piperidinomethylbenzylthio)ethyl}-3-(2,3-dimethylbenzyl)-2-imidazolidinylidenepropanedinitrile], which “% inhibition at 10 μmol/L” value is on record?
**A.** Its value is 91%.

**Q.** Which “% inhibition at 10 μmol/L” value does the source give for “1-{2-(3-Piperidinomethylbenzylthio)ethyl}-3-(1-acenaphthenyl)-2imidazolidinylidenepropanedinitrile [Compound 4]” here?
**A.** The value was 95%.
